The values that follow come from US20210062146A1, “OPTIMIZED IN VITRO CELLULAR SYSTEM FOR BBB PERMEABILITY LINKED NEUROACTIVITY SCREENING” (priority 2019, published 2021).

The nature of series [1]: in vitro. The following applies: human.
The test system of series [2] is NVU model (direct contact triculture with SH-SY5Y neurons). The series can be described thus: Permeability across optimized NVU model (triculture with SH-SY5Y neurons in basolateral chamber).
The test system of series [3] is direct contact triculture. Put plainly: Triculture cell viability assay (MTT). The note with it: following 3 hours of permeation; no significant change vs control (p>0.05). The series is classed as cell-based, human.
For series [4], the system named is NVU model (direct contact triculture with SH-SY5Y neurons). The note with it: for flux: human, 3 h, 50 μM.
The nature of series [5]: in vitro. The following applies: human. This is another data set of the same source.
A short description of series [6]: in vitro. The following applies: human. The source holds these as a separate data set.
The next series deals with SH-SY5Y neurons. Put plainly: BBB permeability linked neuroactivity (Neurite Outgrowth Staining Kit). The following applies: 50 μM initial apical concentration, 3 hour permeation, n=4.
The conditions of series [7]: human.
Series [8] deals with direct contact triculture (astrocytes, pericytes, HBEC-5i). The following applies: optimized triculture; radiolabeled marker, 0.25 μCi/mL in HBSS.

Like-named read-outs stand apart in the source and are kept apart here.

Consider `N[C@@H](Cc1c[nH]cn1)C(=O)O` [L-histidine], for which the Papp A→B (usually how fast a substance crosses the layer from the apical side) at 90 min, 0.25 μCi/mL in “in vitro [1]” is 52.6 ×10⁻⁶ cm/s.
As for `CS(=O)(=O)CCNCc1ccc(-c2ccc3ncnc(Nc4ccc(OCc5cccc(F)c5)c(Cl)c4)c3c2)o1` [Lapatinib], the “detection in the receiver chamber after 3 hours” value in series [2] is on record as “undetectable”.
On to `Cn1c(=O)c2c(ncn2C)n(C)c1=O` [caffeine], for which the “viability of the triculture (MTT), percent of the control” value (from here on “viability … percent of the control”) in [3] is 104±25%. Besides, the flux in series [4] is recorded as 269±14 pg/cm^2·sec. Moreover, in “in vitro [1]”, the Papp A→B at 150 min, 25 μM was determined as 28.9 ×10⁻⁶ cm/s. This molecule returned a Papp A→B at 180 min in the series “in vitro [5]” of 30.7 ×10⁻⁶ cm/s. In addition, in the series “in vitro [6]”, the viability – broadly, a read-out of living cells in per cent, often relative to untreated cells – at 3 h, 50 μM is 159 ± 34%. Moreover, the “neurite outgrowth, percent of control NVU SH-SY5Y cells with vehicle” value in the series with SH-SY5Y neurons stood at 122±26%.
In the case of `NC(=O)N1c2ccccc2C=Cc2ccccc21` [carbamazepine], the “viability … percent of the control” value in [3] is reported as 103±5%. Moreover, in [4], the Papp was found to be 25.37±2.80×0^−6 cm/sec and the flux came to 310±9 pg/cm^2·sec. In the series “in vitro [1]”, this molecule had a Papp A→B at 150 min, 25 μM of 27.7 ×10⁻⁶ cm/s. For the same molecule, the viability at 3 h, 50 μM in the series “in vitro [6]” came to 96 ± 18%.
Consider `CN1CCN(C2=Nc3cc(Cl)ccc3Nc3ccccc32)CC1` [clozapine], for which the “viability … percent of the control” value in [3] came to 99±4%. For the same molecule, in [4], the “change in permeation rate across the NVU model in comparison to the optimized triculture alone” value is recorded as “significant increase” and the flux was 372±19 pg/cm^2·sec. In the series “in vitro [1]”, this molecule showed a Papp A→B at 150 min, 25 μM of 8.15 ×10⁻⁶ cm/s. In addition, the apical-to-basolateral permeability (Papp A→B) at 180 min in the series “in vitro [5]” came to 11.4 ×10⁻⁶ cm/s. Moreover, the viability at 3 h, 50 μM in “in vitro [6]” was 143 ± 20%. Also, the “neurite outgrowth, percent of control NVU SH-SY5Y cells with vehicle” value with SH-SY5Y neurons worked out at 111±12%.
As for `COc1cc2c(c(OC)c1OC)-c1ccc(OC)c(=O)cc1[C@@H](NC(C)=O)CC2` [colchicine], in [7], the Papp A→B at 150 min, 25 μM amounted to 18.7 ×10⁻⁶ cm/s.
`OC[C@@H](O)[C@@H](O)[C@H](O)[C@H](O)CO` [mannitol] came in with a Papp A→B at 90 min, 0.25 μCi/mL in the series “in vitro [1]” of 19.9 ×10⁻⁶ cm/s.
`COc1ccc2[nH]cc(CCNC(C)=O)c2c1` [melatonin] displayed a Papp A→B at 180 min in the series “in vitro [5]” of 18.3 ×10⁻⁶ cm/s.
Take `COc1cc2nc(N3CCN(C(=O)c4ccco4)CC3)nc(N)c2cc1OC` [prazosin]: the “viability … percent of the control” value in series [3] was found to be 82±6%. Further, in series [4], the “change in permeation rate across the NVU model in comparison to the optimized triculture alone” value is on record as “significant decreases” and the flux is reported as 166±14 pg/cm^2·sec. For the same molecule, the apparent permeability from apical to basolateral (Papp A→B) at 150 min, 25 μM in “in vitro [1]” worked out at 6.16 ×10⁻⁶ cm/s. This molecule also came in with a Papp A→B at 180 min in “in vitro [5]” of 3.9 ×10⁻⁶ cm/s.
With PEG-4000, the Papp in series [8] is reported as 0.78×10^−5±0.00 cm/sec.
Still for that read-out and setting: the result for inulin reads 1.55×10^−5±0.01 cm/sec.
